Assay results reported in patent US3984555A, “Therapeutic piperazinylalkyl-quinazolone-(4)-derivatives” (Byk Gulden Lomberg Chemische Fabrik Gesellschaft mit …, priority 1970, dated 1976).

Assays:
[1] = German Published patent application No. 1,231,705 and 1,249,281; cited from earlier work
[2] = system: duration of sleep of mice under hexobarbital; test: Prolongation of hexobarbital sleep in mice (Table III, d); format: in vivo; conditions: Mus musculus, ip; 15 mg/kg i.p.; 75 mg/kg hexobarbital; read-out: d % prolongation of sleep under hexebarbital by 15 mg/kg i.p.
Protocol: d = percentage prolongation of the duration of sleep of mice which had received 75 mg/kg. of hexobarbital, reckoned on the duration of the sleep of control animals.

[3] = system: systolic and diastolic blood pressure; test: Orientating clinical test in patients (FIGS. 1 and 2); format: in vivo, 7 female and 1 male patient
[4] = system: blood pressure and cardiac frequency of the narcotised rat; test: Influence on the blood pressure and the cardiac frequency of the narcotised rat (Table II); format: in vivo; conditions: iv, i/v, read-out: Blood pressure lowered by 30% by mg/kg i/v
Description: Influence on the blood pressure and the cardiac frequency of the
blood pressure and the cardiac frequency of the narcosed rate and also on […]

mouse [5] = test: Mice falling from a rotating bar (Table III, a); format: in vivo; conditions: ip, read-out: a PD50 mg/kg i.p.
Description: The central damping actions of the piperazinyl quinazolones on the mouse can be seen from Table III.
a = dose at which 50% of the mice fall from a rotating bar;

mouse [6] = test: Inhibition of spontaneous motility, sedation, muscular relaxation, loss of grip on horizontal wire mesh in mice (Table III, b); format: in vivo; conditions: po, dose at which an average of 50% of the mice display symptoms, read-out: b SD50 mg/kg oral
carotid sinus reflex = test: Inhibition of the carotid sinus reflex of the narcotised cat (Table I); format: in vivo; design: unit not given here; conditions: for Inhibition of the carotid sinus reflex by 30% by: dose for 30% inhibition; for Inhibition of the carotid sinus reflex by 50% by: dose for 50% inhibition
Description: (§1) Influence on the blood pressure and cardiac frequency and also
(§2) on the carotid sinus reflex of the narcotised cat
(§3) Table I provides a general summary of the influence of different piperazinylquinazolones on the blood pressure, the cardiac frequency and the carotid sinus reflex of the narcotised cat.
The inhibition of the carotid sinus reflex brought about by the piperazinyl quinazolones occurs at lower doses than the spontaneous lowering of the blood pressure in the cat.

[7] = system: defence reaction after the thermal stimulation of the tail of the mouse; test: Analgesic effect on the mouse: delay in defence reaction after thermal stimulation of the tail (Table IV); format: in vivo; conditions: po; mouse; per os; 25% delay; read-out: Delay in the defence reaction after the thermal stimulation of the tail of the mouse by 25% by mg/kg per os
Description: From Table IV below one can see the analgesic action, measured in terms of the delayed reaction during the thermal irritation of the mouse tail. The analgesically effective doses are also below those which reduce the motor behaviour, that is to say the normal movement processes (cf. Table III).
Analgesic effect on the mouse
Delay in the defence reaction after
the thermal stimulation of the tail

[8] = system: hypertensive effect of noradrenalin; test: 50% inhibition of hypertensive effect of 0.001 mg/kg i/v noradrenalin on the despinalised rat (Table II); format: in vivo; conditions: iv, read-out: 50% inhibition of hypertensive effect after i/v dose of Noradrenalin by mg/kg i/v
Protocol: (§4) also on the hypertensive effect of 0.001 mg/kg i/v 1-adrenalin and
(§5) blood pressure and the cardiac frequency of the narcosed rate and also on
(§6) the hypertensive effect of 0.001 mg/kg i.v. 1-adrenaline and noradrenaline
(§7) on the despinalised rat. The mean lethal doses for the mouse are also

[9] = LD50 (mean lethal dose) on the mouse (Table II); conditions: in vivo
Description: as §7

[10] = system: hypertensive effect of 1-adrenalin; test: 50% inhibition of hypertensive effect of 0.001 mg/kg i/v 1-adrenalin on the despinalised rat (Table II); format: in vivo; conditions: iv, read-out: 50% inhibition of hypertensive effect after i/v dose of Adrenalin by mg/kg i/v
Protocol: as §4, §5, §6, §7

[11] = system: blood pressure and cardiac frequency of the narcotised cat; test: Influence on the blood pressure and cardiac frequency of the narcotised cat (Table I); format: in vivo; design: unit not given here; conditions: for Blood pressure lowered by 30% by: dose lowering blood pressure by 30%; for Blood pressure lowered by 50% by: dose lowering blood pressure by 50%
Description: as §1, §2, §3

[12] = system: running activity of mice pre-treated with α-amphetamine sulphate; test: Inhibition of running activity of mice pre-treated with α-amphetamine sulphate (Table III, c); format: in vivo; conditions: Mus musculus, ip, 3 h, 5 mg/kg α-amphetamine sulphate, 180 minutes; for inhibition in vivo at 12 mg/kg: 12mg/kg i/p, read-out: c % inhibition of motility in the treadwheel by 12mg/kg i/p; for inhibition in vivo at 25 mg/kg: 25mg/kg i/p, read-out: c % inhibition of motility in the treadwheel by 25mg/kg i/p
[13] = 10 and 20 mg per os, 7 female and 1 male patient

Compound	change in vivo at 15 mg/kg [2] [%]	ED30 [4] [mg/kg]	ED50 (mouse [5]) [mg/kg]	ED50 (mouse [6]) [mg/kg]	Inhibition of the carotid sinus reflex by 30% by (carotid sinus reflex)	Inhibition of the carotid sinus reflex by 50% by (carotid sinus reflex)	ED25 [7] [mg/kg]	ED50 [8] [mg/kg]	LD50 [9] [mg/kg]	ED50 [10] [mg/kg]	Blood pressure lowered by 30% by [11]	Blood pressure lowered by 50% by [11]	inhibition in vivo at 12 mg/kg [12] [%]	inhibition in vivo at 25 mg/kg [12] [%]	also measured
CCOc1ccc2nc(CN(C)C)n(C)c(=O)c2c1 [2-dimethylaminomethyl-3-methyl-6-ethoxyquinazolone-4]															analgesic action compared with 4-dimethylamino-1-phenyl-2,3-dimethylpyrazolone-5 [1]: comparable
COc1cc2nc(CCN3CCN(c4ccccc4OC)CC3)[nH]c(=O)c2cc1OC [Example 6, 2-(2-(1-(2-methoxyphenyl)piperazinyl-4)ethyl)-6,7-dimethoxy-4(3H)-quinazolone]	79	0.35	34	40	0.12	0.35	1.5	> 2.5	600	0.036	0.07	0.61	19	28	effect on the sensorium [3, 13]: no effect on the sensorium; lowering of the diastolic blood pressure [3, 13]: statistically significant lowering; lowering of the systolic blood pressure [3, 13]: statistically significant lowering; tolerance [3, 13]: very good tolerance; difference in the action of 10 and 20 mg. ([3]; 10 vs 20 mg, FIGS. 1 and 2): statistically confirmed; dose dependence of the lowering of the blood pressure ([3]; mean initial blood pressure 171.9 mm Hg systolic, 95.3 mm Hg diastolic, FIGS. 1 and 2): dependent upon the dose
COc1cc2nc(CCN3CCN(c4ccccc4Cl)CC3)[nH]c(=O)c2cc1OC [Example 11, 2-(2-(1-(2-chlorophenyl)piperazinyl-4)ethyl)-6,7-dimethoxy-4(2H)-quinazolone]	87	0.1	53	110	0.017	0.04	4	> 2.5	200	0.048	0.04	> 1.6	18	32	
COc1cc2nc(CCN3CCN(c4ccccc4F)CC3)[nH]c(=O)c2cc1OC [Example 14, 2-(2-(1-(2-fluorophenyl)piperazinyl-4)ethyl)-6,7-dimethoxy-4(3H)-quinazolone]	68	0.18	61	180	0.04	0.15	2	> 2.5	150	0.058	0.9	> 1.6		1	
